Laboratory results as given in PubChem BioAssay AID330 (DTP/NCI, 2004).
“And” between values parts separate entries of the source, which are not always exact repeats. Equal entries are not always repeated. Inconclusive results and toxic doses are left out.

System: P388 leukemia ip, CD2F1 mice, survival T/C
Test: NCI In Vivo Anticancer Drug Screen. Data for tumor model P388 Leukemia (intraperitoneal) in CD2F1 (CDF1) mice
Conditions: endpoint: median survival time, higher = longer survival
How it was run: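 Mice carrying the transplanted tumor received test compound or vehicle. Survival was recorded in each group, and the value is the treated-group measurement divided by that of the vehicle-treated control group.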

[1] = dose: 240.0 mg/kg/injection, schedule: Q01DX005 (ip), vehicle: saline with Tween-80
[2] = dose: 50.0 mg/kg/injection, schedule: Q01DX009 (ip), vehicle: saline with Tween-80
[3] = dose: 100.0 mg/kg/injection, schedule: Q01DX009 (ip), vehicle: saline with Tween-80
[4] = dose: 200.0 mg/kg/injection, schedule: Q01DX009 (ip), vehicle: saline with Tween-80
[5] = dose: 60.0 mg/kg/injection, schedule: Q01DX005 (ip), vehicle: Klucel (hydroxypropylcellulose) (HPC)
[6] = dose: 120.0 mg/kg/injection, schedule: Q01DX005 (ip), vehicle: Klucel (hydroxypropylcellulose) (HPC)
[7] = dose: 60.0 mg/kg/injection, schedule: Q01DX005 (ip), vehicle: saline with Tween-80
[8] = dose: 120.0 mg/kg/injection, schedule: Q01DX005 (ip), vehicle: saline with Tween-80

Which results are given for `CC(=O)c1c(O)c(C)c(O)c2c1OC1=CC(=O)c3c(C)noc3C12C` (stereo unspecified)?
T/C (dose: 12.5 mg/kg/injection, schedule: Q01DX009 (ip), vehicle: gum acacia): 102 % of control; T/C (dose: 25.0 mg/kg/injection, schedule: Q01DX009 (ip), vehicle: gum acacia): 118 % of control; T/C (dose: 50.0 mg/kg/injection, schedule: Q01DX009 (ip), vehicle: gum acacia): 101 % of control and 112 % of control and 113 % of control; T/C (dose: 100.0 mg/kg/injection, schedule: Q01DX009 (ip), vehicle: gum acacia): 114 % of control and 118 % of control and 120 % of control; T/C (dose: 200.0 mg/kg/injection, schedule: Q01DX009 (ip), vehicle: gum acacia): 104 % of control and 105 % of control

With `CNCCNc1ccc(NCCNC)c2c1C(=O)c1ccccc1C2=O` as the compound, how does the T/C (dose: 2.0 mg/kg/injection, schedule: Q01DX009 (ip), vehicle: acid diluted with saline) read?
Its T/C is 183 % of control.

What about the T/C (dose: 4.0 mg/kg/injection, schedule: Q01DX009 (ip), vehicle: acid diluted with saline) of the same compound?
The T/C was 175 % of control.

What about the T/C (dose: 8.0 mg/kg/injection, schedule: Q01DX009 (ip), vehicle: acid diluted with saline) of the same compound?
The T/C was 175 % of control.

What about the T/C (dose: 12.5 mg/kg/injection, schedule: Q01DX009 (ip), vehicle: distilled water + Tween-80) of the same compound?
Its T/C is 200 % of control.

What about the T/C (dose: 16.0 mg/kg/injection, schedule: Q01DX009 (ip), vehicle: acid diluted with saline) of the same compound?
The T/C was 86 % of control.

Which results are given for `CCN(CC)C(=O)Cn1cc([N+](=O)[O-])sc1=NC(=O)c1ccco1`?
T/C (dose: 100.0 mg/kg/injection, schedule: Q01DX001 (ip), vehicle: Klucel (hydroxypropylcellulose) (HPC)): 100 % of control; T/C (dose: 200.0 mg/kg/injection, schedule: Q01DX001 (ip), vehicle: Klucel (hydroxypropylcellulose) (HPC)): 101 % of control

What does the source list for `CCOc1ccc(-n2c(=O)c(N=Nc3ccc(C)cc3)c(O)n(-c3ccc(Br)cc3)c2=S)cc1`?
T/C (dose: 100.0 mg/kg/injection, schedule: Q04DX002 (ip), vehicle: saline with Tween-80): 96 % of control; T/C (dose: 200.0 mg/kg/injection, schedule: Q04DX002 (ip), vehicle: saline with Tween-80): 94 % of control; T/C (dose: 400.0 mg/kg/injection, schedule: Q04DX002 (ip), vehicle: saline with Tween-80): 90 % of control

What does the source list for `C=CCn1c(=O)n(CC)c(=O)c2[nH]c(Cl)nc21`?
T/C (dose: 15.0 mg/kg/injection, schedule: Q01DX009 (ip), vehicle: saline): 106 % of control; T/C (dose: 30.0 mg/kg/injection, schedule: Q01DX009 (ip), vehicle: saline): 110 % of control; T/C (dose: 60.0 mg/kg/injection, schedule: Q01DX009 (ip), vehicle: saline): 104 % of control

How did the T/C (dose: 50.0 mg/kg/injection, schedule: Q01DX009 (ip), vehicle: saline) turn out when `O=C(O)CN1CC(=O)N(c2ccccc2)C1=S` was run?
The T/C was 101 % of control.

What about the T/C (dose: 100.0 mg/kg/injection, schedule: Q01DX009 (ip), vehicle: saline) of the same compound?
Its T/C is 97 % of control.

What about the T/C (dose: 200.0 mg/kg/injection, schedule: Q01DX009 (ip), vehicle: saline) of the same compound?
Its T/C is 93 % of control.

For `COc1cc(OC)c(/C=N/NC(=S)NC23CC4CC(CC(C4)C2)C3)c(OC)c1`, which T/C (dose: 15.0 mg/kg/injection, schedule: Q01DX005 (ip), vehicle: saline with Tween-80) is on record?
The T/C was 94 % of control.

And the T/C (dose: 30.0 mg/kg/injection, schedule: Q01DX005 (ip), vehicle: saline with Tween-80)?
Its T/C is 97 % of control.

And the T/C [1]?
The T/C was 89 % of control.

With `COC(=O)c1cc(=O)nc(N/N=C/c2ccccc2O)s1` as the compound, how does the T/C (dose: 50.0 mg/kg/injection, schedule: Q01DX005 (ip), vehicle: Klucel (hydroxypropylcellulose) (HPC)) read?
Its T/C is 98 % of control.

And the T/C (dose: 100.0 mg/kg/injection, schedule: Q01DX005 (ip), vehicle: Klucel (hydroxypropylcellulose) (HPC))?
Its T/C is 100 % of control.

And the T/C (dose: 200.0 mg/kg/injection, schedule: Q01DX005 (ip), vehicle: Klucel (hydroxypropylcellulose) (HPC))?
Its T/C is 108 % of control.

Which T/C (dose: 50.0 mg/kg/injection, schedule: Q01DX001 (ip), vehicle: suspension in saline) does the source give for `CC1C(=O)C(C)C(c2ccc([N+](=O)[O-])cc2)OC1c1ccccc1` (stereo unspecified) here?
The T/C was 96 % of control.

What about the T/C (dose: 100.0 mg/kg/injection, schedule: Q01DX001 (ip), vehicle: suspension in saline) of the same compound?
The T/C was 100 % of control.

What about the T/C (dose: 200.0 mg/kg/injection, schedule: Q01DX001 (ip), vehicle: suspension in saline) of the same compound?
Its T/C is 102 % of control.

`CCOC(=O)c1csc(C2OC(COC(=O)c3ccccc3)C(OC(=O)c3ccccc3)C2OC(=O)c2ccccc2)n1` (stereo unspecified) was tested. Which T/C [2] did it give?
Its T/C is 96 % of control.

And the T/C [3]?
Its T/C is 95 % of control.

What about the T/C [4] of the same compound?
Its T/C is 93 % of control.

`CCOC(=O)C(CC)c1ccccc1` (stereo unspecified) was tested. Which T/C [2] did it give?
Its T/C is 99 % of control.

And the T/C [3]?
The T/C was 102 % of control.

What about the T/C [4] of the same compound?
Its T/C is 112 % of control.

Which results are given for `Cn1c(=O)[nH]c(Cl)c(NC=O)c1=O`?
T/C (dose: 25.0 mg/kg/injection, schedule: Q01DX005 (ip), vehicle: water): 98 % of control; T/C (dose: 50.0 mg/kg/injection, schedule: Q01DX005 (ip), vehicle: water): 103 % of control; T/C (dose: 100.0 mg/kg/injection, schedule: Q01DX005 (ip), vehicle: water): 98 % of control; T/C (dose: 200.0 mg/kg/injection, schedule: Q01DX005 (ip), vehicle: water): 109 % of control

Which results are given for `CNC(=O)NC(c1ccc2c(c1)OCO2)c1cc2c(cc1O)OCO2` (stereo unspecified)?
T/C [5]: 87 % of control; T/C [6]: 87 % of control

`CC(=O)OC(C)C(C)[N+](C)(C)C` (stereo unspecified) was tested. Which T/C (dose: 100.0 mg/kg/injection, schedule: Q04DX002 (ip), vehicle: saline) did it give?
The T/C was 94 % of control.

`O=C1C(N=Nc2ccc(Cl)cc2)Sc2nc3ccccc3n21` (stereo unspecified) was tested. Which T/C [5] did it give?
The T/C was 92 % of control.

And the T/C [6]?
The T/C was 90 % of control.

Which results are given for `COc1ccc(C(NC(N)=O)c2cc3c(cc2OC(C)=O)OCO3)c(OC)c1` (stereo unspecified)?
T/C (dose: 15.0 mg/kg/injection, schedule: Q01DX005 (ip), vehicle: Klucel (hydroxypropylcellulose) (HPC)): 91 % of control; T/C (dose: 30.0 mg/kg/injection, schedule: Q01DX005 (ip), vehicle: Klucel (hydroxypropylcellulose) (HPC)): 92 % of control; T/C [5]: 90 % of control and 91 % of control

With `C1=CN2C(c3ccccc3)=NON(c3ncccn3)C2N=C1` (stereo unspecified) as the compound, how does the T/C [7] read?
Its T/C is 96 % of control.

What about the T/C [8] of the same compound?
Its T/C is 91 % of control.

What about the T/C [1] of the same compound?
Its T/C is 90 % of control.

Which T/C (dose: 100.0 mg/kg/injection, schedule: Q01DX009 (ip), vehicle: Klucel (hydroxypropylcellulose) (HPC)) does the source give for `O=c1c2nccnc2nc2n1CCCS2` here?
Its T/C is 99 % of control.

And the T/C (dose: 200.0 mg/kg/injection, schedule: Q01DX009 (ip), vehicle: Klucel (hydroxypropylcellulose) (HPC))?
Its T/C is 100 % of control.

For `NC(=O)NC1(N)C(=O)NC(=O)NC1=O`, which T/C [7] is on record?
The T/C was 94 % of control.

And the T/C [8]?
The T/C was 95 % of control.

What about the T/C [1] of the same compound?
Its T/C is 93 % of control.
